Results taken from patent publication US9540343B2 (Gilead Sciences, Inc., priority 2011, dated 2017).

Legend:
[1] = in vitro; settings: human, uninfected MT-4 cells, CC50 (nM), same protocol as Test A, CellTiter-Glo
In short: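 Cytoprotection read-out: CellTiter-Glo chemiluminescence after 5 days at 37 °C of HIV-IIIb-infected MT-4 cells (m.o.i. 0.003) with compound in 10-point 3-fold dilutions, quadruplicate, 10% FBS. Cytotoxicity (CC50) measured identically without virus.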

[2] = test system: HIV-IIIb; assay: Test A: Antiviral assay in MT4 cells; type: cell-based, HIV-1; settings: Human immunodeficiency virus 1, IIIB, MT4, 120 h, read-out: % inhibition at 2 μM, percent inhibition of virus-induced cell killing, from dose response curve at 2 uM drug; MT-4 cells infected with HIV-IIIb, 5 days, CellTiter-Glo

Structure (SMILES) | CC50 at 5 days [1] [nM] | inhibition at 2 µM [2] [%]
NC(=O)c1cccc(-c2cccnc2[C@H](Cc2cc(F)cc(F)c2)NC(=O)CC2C(=O)Nc3ccc(F)cc32)c1 (stereo partly drawn) [Example 196, 3-(2-((1S)-2-(3,5-difluorophenyl)-1-(2-(5-fluoro-2-oxoindolin-3-yl)acetamido)ethyl)pyridin-3-yl)benzamide] | 29600 | 2
CC1CCCc2c1c(C(F)(F)F)nn2CC(=O)N[C@@H](Cc1cc(F)cc(F)c1)c1ncccc1-c1ccc(F)c(C(N)=O)c1 (stereo partly drawn) [Example 272F, 5-(2-((1S)-2-(3,5-difluorophenyl)-1-(2-(4-methyl-3-(trifluoromethyl)-4,5,6,7-tetrahydro-1H-indazol-1-yl)acetamido)ethyl)pyridin-3-yl)-2-fluorobenzamide] | 14300 | 92
Cc1cc(C(F)(F)F)nn1CC(=O)N[C@@H](Cc1cc(F)cc(F)c1)c1ncccc1-c1ccc(F)c(C(N)=O)c1 [Example 385, (S)-5-(2-(2-(3,5-difluorophenyl)-1-(2-(5-methyl-3-(trifluoromethyl)-1H-pyrazol-1-yl)acetamido)ethyl)pyridin-3-yl)-2-fluorobenzamide] | > 53200 | 40
CCc1c(C#CC(C)(C)C)c(C(F)(F)F)nn1CC(=O)N[C@@H](Cc1cc(F)cc(F)c1)c1ncccc1-c1ccc(F)c(C(N)=O)c1 [Example 280, (S)-5-(2-(2-(3,5-difluorophenyl)-1-(2-(4-(3,3-dimethylbut-1-ynyl)-5-ethyl-3-(trifluoromethyl)-1H-pyrazol-1-yl)acetamido)ethyl)pyridin-3-yl)-2-fluorobenzamide] | 4180 | 0
Cn1ncc2ccc(-c3cccnc3[C@H](Cc3cc(F)cc(F)c3)NC(=O)Cn3nc(C(F)F)c4c3C(F)(F)C3CC43)cc21 (stereo partly drawn) [Example 73, (S)—N-(1-(3-(1-methylindazole-6-yl)-pyridin-2-yl)-2-(3,5-difluorophenyl)ethyl)-2-(3-(difluoromethyl)-5,6-dihydro-4,5-(methano)-6,6-difluoro-cyclopenta[c]pyrazol-1(4H)-yl)acetamide] | 9790 | 15
CCC(C(=O)N[C@@H](Cc1cc(F)cc(F)c1)c1ncccc1-c1ccc(F)c(C(N)=O)c1)n1cnc2cc(C)c(C)cc21 (stereo partly drawn) [Example 587C, 5-(2-((1S)-2-(3,5-difluorophenyl)-1-(2-(5,6-dimethyl-1H-benzo[d]imidazol-1-yl)butanamido)ethyl)pyridin-3-yl)-2-fluorobenzamide] | 23000 | 93
CC(C)(C)c1cc(C(F)(F)F)n(CC(=O)N[C@@H](Cc2cc(F)cc(F)c2)c2ncccc2-c2ccc(F)c(C(N)=O)c2)n1 [Example 238E, (S)-5-(2-(1-(2-(3-(tert-butyl)-5-(trifluoromethyl)-1H-pyrazol-1-yl)acetamido)-2-(3,5-difluorophenyl)ethyl)pyridin-3-yl)-2-fluorobenzamide] | 17000 | 12
Cc1ccccc1-c1cccnc1[C@H](Cc1ccccc1)NC(=O)Cn1nc(C(F)(F)F)c2c1CCCC2 [Example 17, (S)—N-(2-phenyl-1-(3-o-tolylpyridin-2-yl)ethyl)-2-(3-(trifluoromethyl)-4,5,6,7-tetrahydro-1H-indazol-1-yl)acetamide] | 13800 | 70
NC(=O)c1cc(-c2cccnc2[C@H](Cc2cccc(F)c2)NC(=O)Cn2c(=O)[nH]c3ccccc32)ccc1F [Example 326, (S)-2-fluoro-5-(2-(2-(3-fluorophenyl)-1-(2-(2-oxo-2,3-dihydro-1H-benzo[d]imidazol-1-yl)acetamido)ethyl)pyridin-3-yl)benzamide] | > 53200 | 27
O=C(Cn1nc(C(F)F)c2c1C(F)(F)C1CC21)N[C@@H](Cc1cc(F)cc(F)c1)c1ncncc1-c1ccc2cccnc2c1 (stereo partly drawn) [Example 124C, 2-(3-(difluoromethyl)-5,5-difluoro-3b,4,4a,5-tetrahydro-1H-cyclopropa[3,4]cyclopenta[1,2-c]pyrazol-1-yl)-N—((S)-2-(3,5-difluorophenyl)-1-(5-(quinolin-7-yl)pyrimidin-4-yl)ethyl)acetamide] | 20200 | 77
NC(=O)c1cc(-c2cccnc2[C@H](Cc2cc(F)cc(F)c2)NC(=O)Cn2nc(C(F)F)c(Br)c2C(F)F)ccc1F [Example 555C, (S)-5-(2-(1-(2-(4-bromo-3,5-bis(difluoromethyl)-1H-pyrazol-1-yl)acetamido)-2-(3,5-difluorophenyl)ethyl)pyridin-3-yl)-2-fluorobenzamide] | 25500 | 14
CCC(C(=O)N[C@@H](Cc1cc(F)cc(F)c1)c1ncccc1-c1ccc(F)c(C(N)=O)c1)n1ccc(C(F)(F)F)n1 (single isomer, unassigned) [Example 572B] | 36700 | 11
O=C(Cn1nc(C(F)F)c2c1C(F)(F)CCC2(F)F)N[C@@H](Cc1cc(F)cc(F)c1)c1ncccc1-c1ccc2cc[nH]c(=O)c2c1 [Example 559D, (S)-2-(3-(difluoromethyl)-4,4,7,7-tetrafluoro-4,5,6,7-tetrahydro-1H-indazol-1-yl)-N-(2-(3,5-difluorophenyl)-1-(3-(1-oxo-1,2-dihydroisoquinolin-7-yl)pyridin-2-yl)ethyl)acetamide] | 23100 | 96
NC(=O)c1cc(-c2cccnc2[C@H](Cc2cc(F)cc(F)c2)NC(=O)Cn2nc(C(F)(F)F)c3c2CCCC32CC2)ccc1F [Example 277B, (S)-5-(2-(2-(3,5-difluorophenyl)-1-(2-(3′-(trifluoromethyl)-6′,7′-dihydrospiro[cyclopropane-1,4′-indazole]-1′(5′H)-yl)acetamido)ethyl)pyridin-3-yl)-2-fluorobenzamide] | 19300 | 96
O=C(Cc1c[nH]c2ccc(O)cc12)N[C@@H](Cc1cc(F)cc(F)c1)c1ncccc1-c1ccccc1 [Example 402, (S)—N-(2-(3,5-difluorophenyl)-1-(3-phenylpyridin-2-yl)ethyl)-2-(5-hydroxy-1H-indol-3-yl)acetamide] | 24800 | 92
NC(=O)c1cc(-c2cccnc2[C@H](Cc2cc(F)cc(F)c2)NC(=O)Cn2ccc3ccc(Cl)cc32)ccc1F [Example 494, (S)-5-(2-(1-(2-(6-chloro-1H-indol-1-yl)acetamido)-2-(3,5-difluorophenyl)ethyl)pyridin-3-yl)-2-fluorobenzamide] | 10400 | 17
NC(=O)c1cc(-c2cccnc2[C@H](Cc2cc(F)cc(F)c2)NC(=O)Cn2nc(C(F)(F)F)c3c2CCC(O)C3)ccc1F (stereo partly drawn) [Example 448, 5-(2-((1S)-2-(3,5-difluorophenyl)-1-(2-(5-hydroxy-3-(trifluoromethyl)-4,5,6,7-tetrahydro-1H-indazol-1-yl)acetamido)ethyl)pyridin-3-yl)-2-fluorobenzamide] | > 53200 | 103
CC(C)Oc1ccc(-c2cccnc2[C@H](Cc2cc(F)cc(F)c2)NC(=O)Cn2nc(C(F)F)c3c2C(F)(F)C2CC32)cc1 (stereo partly drawn) [Example 224, 2-(3-(difluoromethyl)-5,5-difluoro-3b,4,4a,5-tetrahydro-1H-cyclopropa[3,4]cyclopenta[1,2-c]pyrazol-1-yl)-N—((S)-2-(3,5-difluorophenyl)-1-(3-(4-isopropoxyphenyl)pyridin-2-yl)ethyl)acetamide] | 20400 | 17
COc1ccc(-c2cccnc2[C@H](Cc2cc(F)cc(F)c2)NC(=O)Cc2c[nH]c3ccc(NS(C)(=O)=O)cc23)cc1 [Example 35G, (S)—N-(2-(3,5-difluorophenyl)-1-(3-(4-methoxyphenyl)pyridin-2-yl)ethyl)-2-(5-(methylsulfonamido)-1H-indol-3-yl)acetamide] | 22400 | 49
NC(=O)c1cc(-c2cccnc2[C@H](Cc2cc(F)cc(F)c2)NC(=O)[C@H]2CCC(=O)N2)ccc1F [Example 125, (R)—N—((S)-1-(3-(3-carbamoyl-4-fluorophenyl)pyridin-2-yl)-2-(3,5-difluorophenyl)ethyl)-5-oxopyrrolidine-2-carboxamide] | > 53000 | 0
CC(C)Cc1ccc(-c2cccnc2[C@H](Cc2cc(F)cc(F)c2)NC(=O)Cc2c[nH]c3ccc(F)cc23)cc1 [Example 103, (S)—N-(2-(3,5-difluorophenyl)-1-(3-(4-isobutylphenyl)pyridin-2-yl)ethyl)-2-(5-fluoro-1H-indol-3-yl)acetamide] | 5170 | 0
NC(=O)c1cccc(-c2cccnc2[C@H](Cc2cc(F)cc(F)c2)NC(=O)Cn2c(C(F)(F)F)nc3ccc(OC(F)(F)F)cc32)c1 [Example 315, (S)-3-(2-(2-(3,5-difluorophenyl)-1-(2-(6-(trifluoromethoxy)-2-(trifluoromethyl)-1H-benzo[d]imidazol-1-yl)acetamido)ethyl)pyridin-3-yl)benzamide] | 47200 | 0
Cc1cc2cnn(CC(=O)N[C@@H](Cc3cc(F)cc(F)c3)c3ncccc3-c3ccc(F)c(C(N)=O)c3)c2cc1C [Example 485, (S)-5-(2-(2-(3,5-difluorophenyl)-1-(2-(5,6-dimethyl-1H-indazol-1-yl)acetamido)ethyl)pyridin-3-yl)-2-fluorobenzamide] | 22200 | 43
Cc1cccc2[nH]cc(CC(=O)N[C@@H](Cc3cc(F)cc(F)c3)c3ncccc3-c3cccc(C(N)=O)c3)c12 [Example 481, (S)-3-(2-(2-(3,5-difluorophenyl)-1-(2-(4-methyl-1H-indol-3-yl)acetamido)ethyl)pyridin-3-yl)benzamide] | 22900 | 53
